Source: PubChem BioAssay (NCI)
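Compound exposure: 48 hours, 5 concentrations, 96-well plates. TGI marks complete inhibition of growth.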

Columns and labels:
Assay in all cases: NCI tumour cell line growth inhibition, 48 h
786-0 renal = tested on: 786-0 renal
A498 renal = tested on: A498 renal
A549 NSCLC = tested on: A549 NSCLC
ACHN renal = tested on: ACHN renal
BT-549 breast = tested on: BT-549 breast
CAKI-1 renal = tested on: CAKI-1 renal
CCRF-CEM leukemia = tested on: CCRF-CEM leukemia
COLO 205 colon = tested on: COLO 205 colon
DU-145 prostate = tested on: DU-145 prostate
EKVX NSCLC = tested on: EKVX NSCLC
HCT-116 colon = tested on: HCT-116 colon
HCT-15 colon = tested on: HCT-15 colon
HL-60(TB) leukemia = tested on: HL-60(TB) leukemia
HOP-62 NSCLC = tested on: HOP-62 NSCLC
HOP-92 NSCLC = tested on: HOP-92 NSCLC
HS 578T breast = tested on: HS 578T breast
HT29 colon = tested on: HT29 colon
IGROV1 ovarian = tested on: IGROV1 ovarian
K-562 leukemia = tested on: K-562 leukemia
KM12 colon = tested on: KM12 colon
LOX IMVI melanoma = tested on: LOX IMVI melanoma
M14 melanoma = tested on: M14 melanoma
MALME-3M melanoma = tested on: MALME-3M melanoma
MCF7 breast = tested on: MCF7 breast
MDA-MB-231 breast = tested on: MDA-MB-231 breast
MDA-MB-435 = tested on: MDA-MB-435
MDA-N = tested on: MDA-N
MOLT-4 leukemia = tested on: MOLT-4 leukemia
NCI-H226 lung = tested on: NCI-H226 lung
NCI-H23 lung = tested on: NCI-H23 lung
NCI-H460 lung = tested on: NCI-H460 lung
NCI-H522 lung = tested on: NCI-H522 lung
NCI/ADR-RES ovarian = tested on: NCI/ADR-RES ovarian
OVCAR-3 ovarian = tested on: OVCAR-3 ovarian
OVCAR-4 ovarian = tested on: OVCAR-4 ovarian
OVCAR-5 ovarian = tested on: OVCAR-5 ovarian
OVCAR-8 ovarian = tested on: OVCAR-8 ovarian
PC-3 prostate = tested on: PC-3 prostate
RPMI-8226 leukemia = tested on: RPMI-8226 leukemia
RXF 393 renal = tested on: RXF 393 renal
SF-268 CNS = tested on: SF-268 CNS
SF-295 CNS = tested on: SF-295 CNS
SF-539 CNS = tested on: SF-539 CNS
SK-MEL-2 melanoma = tested on: SK-MEL-2 melanoma
SK-MEL-28 melanoma = tested on: SK-MEL-28 melanoma
SK-MEL-5 melanoma = tested on: SK-MEL-5 melanoma
SK-OV-3 ovarian = tested on: SK-OV-3 ovarian
SN12C renal = tested on: SN12C renal
SNB-19 CNS = tested on: SNB-19 CNS
SNB-75 CNS = tested on: SNB-75 CNS
SR leukemia = tested on: SR leukemia
SW-620 colon = tested on: SW-620 colon
T-47D breast = tested on: T-47D breast
TK-10 renal = tested on: TK-10 renal
U251 CNS = tested on: U251 CNS
UACC-257 melanoma = tested on: UACC-257 melanoma
UACC-62 melanoma = tested on: UACC-62 melanoma
UO-31 renal = tested on: UO-31 renal

Measured: TGI

CCn1c2ccccc2c2nnc(NCCCO)nc21
not listed: UO-31 renal
> 100 µM: all other assays above

CC(=O)Nc1nc2ncc(C=O)nc2c(=O)[nH]1
not listed: CCRF-CEM leukemia
> 100 µM: all other assays above
